This is an account of results in US8227470B2, “Combination treatment of solid cancers with antimetabolites and tyrosine kinase inhibitors” (AB Science, priority 2007, dated 2012).

pIC50: −log10 of the molar value. “Also recorded” adds a separate entry of the source.

One assay relates to BxPC-3. As to the kind of experiment: WST-1 cell proliferation and viability assay. The format is cell-based. The method, then: (§1) Pancreatic, colon and prostate cancer cell lines (generous gift from Dr. Juan Iovanna, INSERM U624, Marseille, France), breast and ovarian cancer cell lines (generous gift from Dr. Patrice Dubreuil, UMR 599 INSERM, Marseille, France), and lung cancer cell line (generous gift from Pr. Christian Auclair, UMR 8113 CNRS) were cultured as monolayers in RPMI 1640 medium containing L-glutamine supplemented with 100 U/mL penicillin and 100 μg/mL streptomycin, and 10% v/v heat-inactivated foetal calf serum (AbCys Lot SO2823S1800) under standard culture conditions (5% CO2, 95% air in humidified chamber at 37° C.).
(§2) During proliferation assay, all cells were grown in medium containing 1% FCS.
(§3) Colorimetric cell proliferation and viability assay (reagent WST-1 purchased from Roche cat N° 1644807)
(§4) The cells were washed once and resuspended in RPMI 1% FCS. Cells at 1.10^4/50 μl were plated per well of a 96 well plate.
(§5) Drug dilutions were prepared in a 96 well plate and obtained by sequential dilutions of AB1010 or gemcitabine in RPMI 1.
(§6) Treatment was started by the addition of 50 μl of a 2× concentrated drug solution to a final volume of 100 μl.
(§7) For treatment with combination of AB1010 and gemcitabine, the cells were first resuspended in medium RPMI 1% FCS containing AB1010 at the concentrations of 0, 2, 5 and 10 μM. 1.10^4 cells/50 μl were plated per well of a 96 wells plate and the plates placed in the incubator o/n before treatment with cytotoxic agents. Cytotoxic agent treatment was initiated by addition of 50 μl of a 2× drug dilution (and containing the respective AB1010 drug concentration) to a final volume of 100 μl. AB1010 final concentrations remained 0, 2, 5 and 10 μM. After incubating for 48-72 hours at 37° C., 10 μl of a ½ dilution of WST-1 reagent was added to each well and the plates were returned to the incubator for an additional 4 hours. The absorbance of the samples was measured at 490 nm using an EL800 Universal microplate reader (Bio-Tek Instruments Inc.).
(§8) A background control without cells was used as a blank for the ELISA reader.
(§9) The positive control of the assay corresponds to the cell proliferation obtained in the absence of drug treatment (100% proliferation).
(§10) Each sample was done in duplicate, the absorbance values were transferred to an excel file, the average and standard deviation of the duplicates were calculated and expressed as a percentage of the proliferation obtained in absence of treatment.
(§11) To determine the IC50 concentration of gemcitabine on pancreatic cell lines, the cells were grown in 1% FCS and exposed to different doses of the drug.
(§12) To determine the IC50 concentration of gemcitabine used in association with AB1010, pancreatic cell lines grown in 1% FCS were pre-treated with AB1010 for about 12-16 hours before being exposed to different doses of the gemcitabine.
Background: Tetrazolium dyes change colour on reduction, which living cells bring about.

The subject of a further assay is Panc-1. As to the kind of experiment: WST-1 cell proliferation and viability assay. The assay is classed as cell-based. The method, then:
as §1, §2, §3, §4, §5, §6, §7, §8, §9, §10, §11, §12

A further assay has as its system Capan-2. As to the kind of experiment: WST-1 cell proliferation and viability assay. The format is cell-based. The method, then:
as §1, §2, §3, §4, §5, §6, §7, §8, §9, §10, §11, §12

For another assay, the system named is colon HT-29. Description: WST-1 proliferation assay, sensitization to gemcitabine. The assay is classed as cell-based. To be noted: colon HT-29, the one resistant line in which sensitivity was not restored. The method, then:
as §1, §2, §3, §4, §7, §10
(§13) In order to evaluate the ability of AB1010 to sensitize other tumour types to gemcitabine, we performed similar studies on prostate, lung, ovarian and colon tumour cell lines.

For assay [1], the system named is rectum HRT-18, and colon Caco-2 and SW-480 cell lines. The assay is described as above. The assay is classed as cell-based. The note with it: rectum HRT-18, colon Caco-2 and SW-480; AB1010 pre-treatment. The method, then:
as §1, §2, §3, §4, §7, §10, §13

Assay [2] deals with lung A549 and H1299 cell lines. The description is as above. The assay is classed as cell-based. To be noted: AB1010 pre-treatment. The method, then: as §1, §2, §3, §4, §7, §10, §13
The test system of assay [3] is ovarian OVCAR-3 cell lines. The description is as above. The assay is classed as cell-based. To be noted: AB1010 pre-treatment. The method, then: as §1, §2, §3, §4, §7, §10, §13
Assay [4] has as its system prostate DU145, and C4-2 cell lines. The assay is described as above. The assay is classed as cell-based. To be noted: AB1010 pre-treatment. The method, then:
as §1, §2, §3, §4, §7, §10, §13

The next assay deals with Mia Paca-2. Description: WST-1 cell proliferation and viability assay. The format is cell-based. To be noted: for sensitization to gemcitabine by pre-treatment: MiaPaca-2, pre-treatment 12-16 hours (AB1010 5 and 10 μM; STI571 up to 10 μM) before gemcitabine. The method, then:
as §1, §2, §3, §4, §5, §6
as §7, with “AB1010 final concentrations remained 0, 2, 5 and 10 μM. After incubating for 48-72 hours at 37° C., 10 μl of a ½ dilution of WST-1 reagent was added to each well and the plates were returned to the incubator for an additional 4 hours.” left out
A background control without cells was used as a blank for the ELISA reader. […]
(§14) Each sample was done in duplicate, the absorbance values were transferred to an excel file, the average and standard deviation of the duplicates were calculated and expressed as a percentage of the proliferation obtained in absence of treatment. […]

The subject of assay [5] is cell line (Ba/F3-derived) expressing JMΔ27. As to the kind of experiment: Apoptosis induction in Ba/F3-derived cell line. The format is cell-based. The method, then: (§15) In this experiment, after 48 hours, 0.1 μM AB1010 induced apoptosis of approximately 50% versus control cells in which 10% of cells were apoptotic. In addition, a separate cell line (Ba/F3-derived) expressing JMΔ27 was tested and apoptosis was induced to a level of approximately 85%.

The subject of assay [6] is human mast cell line expressing the JMΔ27 mutated c-kit. Description: Apoptosis induction in mast cell line. The assay is classed as cell-based. To be noted: 0.1 μM, after 48 hours; control cells 10% apoptotic. The method, then: as §15
Another assay deals with breast tumour cell lines. As to the kind of experiment: WST-1 proliferation assay, breast lines with docetaxel. The assay is classed as cell-based. The method, then: as §1, §2, §3
(§16) The cells were washed once and resuspended in RPMI 1% FCS. […]
(§17) For treatment with combination of AB1010 and gemcitabine, the cells were first resuspended in medium RPMI 1% FCS containing AB1010 at the concentrations of 0, 2, 5 and 10 μM. […] The absorbance of the samples was measured at 490 nm using an EL800 Universal microplate reader (Bio-Tek Instruments Inc.).
as §14

The target of assay [7] is T1, FAK kinase (Homo sapiens, UniProt Q05397). Description: SelectScreen kinase Profiling (Invitrogen), purified kinases. The format is biochemical. The note with it: inhibitor at 1 μM (1,000 nM); for inhibition at 1 µM: read-out: Percentage of inhibition of FAK kinase activity.
T1 sequence (Q05397 whole entry): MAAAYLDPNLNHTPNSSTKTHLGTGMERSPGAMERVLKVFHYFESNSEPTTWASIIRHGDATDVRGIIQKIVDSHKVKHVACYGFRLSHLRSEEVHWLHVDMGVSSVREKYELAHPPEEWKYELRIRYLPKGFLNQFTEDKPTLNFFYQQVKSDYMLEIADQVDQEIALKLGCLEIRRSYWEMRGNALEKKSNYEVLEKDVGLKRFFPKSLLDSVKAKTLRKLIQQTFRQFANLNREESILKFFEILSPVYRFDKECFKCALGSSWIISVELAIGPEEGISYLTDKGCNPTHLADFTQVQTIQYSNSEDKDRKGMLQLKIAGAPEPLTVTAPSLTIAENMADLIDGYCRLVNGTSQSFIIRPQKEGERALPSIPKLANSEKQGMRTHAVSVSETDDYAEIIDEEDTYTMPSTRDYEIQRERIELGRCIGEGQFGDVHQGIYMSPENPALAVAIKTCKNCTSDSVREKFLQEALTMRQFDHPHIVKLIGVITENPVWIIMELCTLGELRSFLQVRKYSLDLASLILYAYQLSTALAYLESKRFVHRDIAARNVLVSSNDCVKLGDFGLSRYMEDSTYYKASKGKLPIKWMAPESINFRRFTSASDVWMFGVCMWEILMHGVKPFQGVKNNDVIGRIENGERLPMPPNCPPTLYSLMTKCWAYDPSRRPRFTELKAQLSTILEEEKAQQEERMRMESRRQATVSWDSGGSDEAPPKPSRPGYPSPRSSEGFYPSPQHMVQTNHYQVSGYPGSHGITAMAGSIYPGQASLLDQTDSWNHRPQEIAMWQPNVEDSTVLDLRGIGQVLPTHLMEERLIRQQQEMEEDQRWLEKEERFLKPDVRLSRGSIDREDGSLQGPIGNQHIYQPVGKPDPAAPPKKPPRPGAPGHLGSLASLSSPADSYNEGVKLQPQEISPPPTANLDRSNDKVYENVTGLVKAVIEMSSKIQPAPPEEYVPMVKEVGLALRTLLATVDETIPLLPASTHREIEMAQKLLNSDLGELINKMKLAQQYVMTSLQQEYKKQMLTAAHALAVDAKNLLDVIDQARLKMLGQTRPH
Assay [8] has as its target T1, FAK kinase. Description: Western blot of FAK activation status (anti PY / anti phospho FAK). The format is cell-based. The note with it: FIG. 3B. The source says: Pancreatic tumour cells lines are described to express high level of the non-receptor tyrosine kinase FAK that contributes to resistance to gemcitabine. […] By the use of either anti PY or anti phospho FAK antibodies, we studied by western blot assay the activation status of FAK kinase.

Assay [9] concerns ovarian tumour cell lines. As to the kind of experiment: WST-1 proliferation assay, ovarian lines with paclitaxel. The format is cell-based. The method, then:
as §1, §2, §3, §16, §17, §14

A further assay relates to HRT-18. Description: WST-1 proliferation assay, sensitization to Irinotecan. The format is cell-based. The note with it: most resistant colorectal cell line HRT-18; AB1010 pre-treatment. The method, then:
as §1, §2, §3, §4
[…] The absorbance of the samples was measured at 490 nm using an EL800 Universal microplate reader (Bio-Tek Instruments Inc.).
as §14

In the case of `Cc1ccc(NC(=O)c2ccc(CN3CCN(C)CC3)cc2)cc1Nc1nc(-c2cccnc2)cs1` [AB1010, 4-(4-Methyl-piperazin-1-ylmethyl)-N-[4-methyl-3-(4-pyridin-3-yl-thiazol-2-ylamino)-phenyl]-benzamide], the “sensitization to gemcitabine by pre-treatment” value with BxPC-3 (gemcitabine-sensitive BxPC-3, AB1010 pre-treatment) is on record as “not observed”; in the assay on Panc-1 (Panc-1, AB1010 5 and 10 μM pre-treatment 12-16 hours before gemcitabine), “reverse resistance”; in the assay on Capan-2 (gemcitabine-sensitive Capan-2, AB1010 pre-treatment), “not observed”; in the assay on Mia Paca-2 it was “reverse resistance”. In addition, the “restoration of sensitivity to gemcitabine” value in the assay with colon HT-29 is reported as “except one”. Further, the sensitization to gemcitabine entry was “AB1010 sensitizes rectum HRT-18, and colon Caco-2 and SW-480” in assay [1]; “AB1010 sensitizes lung A549 and H1299 cell lines to gemcitabine” in [2]; “AB1010 sensitizes ovarian OVCAR-3 cell lines to gemcitabine” in assay [3]; “AB1010 sensitizes prostate DU145, and C4-2 cell lines to gemcitabine” in [4]. The results for the apoptosis induced result in assay [5] and in assay [6] were “approximately 85%” and “approximately 50%”, respectively. For the same compound, the sensitization to docetaxel entry with breast tumour cell lines (docetaxel-resistant breast cancer cell lines, AB1010 pre-treatment) is “good sensitization by AB1010 for 6 out of 11”. In addition, the inhibition (usually how much of the control response was suppressed) at 1 µM at FAK kinase [7] amounted to 21%. The “inhibition of FAK autoactivation” value at FAK kinase [8] is on record as “inhibits partially”. For the same compound, in assay [9] (resistant ovarian tumour cell lines, AB1010 pre-treatment), the “restoration of sensitivity to Paclitaxel” value is recorded as “restores sensitivity”. Further, the “sensitization to Irinotecan (CPT-11)” value in the assay with HRT-18 was “good sensitization”.
As for `CC(=O)O[C@@]12CO[C@@H]1C[C@H](O)[C@@]1(C)C(=O)[C@H](O)C3=C(C)[C@@H](OC(=O)[C@H](O)[C@@H](NC(=O)OC(C)(C)C)c4ccccc4)C[C@@](O)([C@@H](OC(=O)c4ccccc4)[C@H]21)C3(C)C` [Docetaxel, reference compound], the “sensitivity to Docetaxel” value with breast tumour cell lines (breast cancer cell lines, drug alone) is recorded as “most of the breast cancer cell lines tested exhibit resistance”.
For the compound `CC(C)(C)n1nc(-c2ccc(Cl)cc2)c2c(N)ncnc21` [PP2], at FAK kinase [7], the “Percentage of inhibition of FAK kinase activity” value turned out to be 75%.
As to `CC(=O)O[C@H]1C(=O)[C@@]2(C)[C@H]([C@H](OC(=O)c3ccccc3)[C@]3(O)C[C@H](OC(=O)[C@H](O)[C@@H](NC(=O)c4ccccc4)c4ccccc4)C(C)=C1C3(C)C)[C@]1(OC(C)=O)CO[C@@H]1C[C@@H]2O` [Paclitaxel, reference compound], the “sensitivity to Paclitaxel” value in assay [9] (five ovarian cell lines, drug alone) is “Three out of the five ovarian cell lines tested exhibit strong sensitivity”.
For `Cc1ccc(NC(=O)c2ccc(CN3CCN(C)CC3)cc2)cc1Nc1nccc(-c2cccnc2)n1` [STI571], the “sensitization to gemcitabine by pre-treatment” value with Mia Paca-2 was “does not sensitize; also recorded: does not lead to the same result”. The inhibition at 1 µM at FAK kinase [7] is 9%.
As for `Nc1ccn(C2OC(CO)C(O)C2(F)F)c(=O)n1` (stereo not shown) [gemcitabine, 4-amino-1-[3,3-difluoro-4-hydroxy-5-(hydroxymethyl)tetrahydrofuran-2-yl]-1H-pyrimidin-2-one, reference compound], the pIC50 with BxPC-3 (Homo sapiens, BxPC-3, 1% FCS, drug alone, read-out: IC50, inhibition of proliferation) is 7.70 to 8.70; in the assay on Capan-2 (Homo sapiens, Capan-2, 1% FCS, drug alone, read-out: IC50, inhibition of proliferation) it was 7.70 to 8.70. The sensitivity to gemcitabine result in the assay with Panc-1 (Panc-1, 1% FCS, drug alone) is on record as “lack of sensitivity”; with Mia Paca-2 (Mia Paca-2, 1% FCS, drug alone) it was “lack of sensitivity”.
